The values that follow come from ChEMBL document CHEMBL1135129, “N-Tetrahydrofuroyl-(L)-phenylalanine derivatives as potent VLA-4 antagonists” (Bioorg Med Chem Lett, 2002).

SMILES strings stand for the structures. pIC50: −log10 of the molar value.

For data set [1], the target named is T1, Integrin alpha-4/beta-1 (Homo sapiens, UniProt P05556+P13612). Kind of data set: Inhibition of very late antigen-4 alpha4-beta1 (VLA-4), I-VCAM-Ig as radioligand. The format is protein-complex assay.
Data set [2] in a line: Oral bioavailability in rat (Sprague-Dawley) (dose 2 mg/kg). The format is ADME, organism-based. The settings on record: in vivo.
Data set [3] can be described thus: Oral bioavailability in rat (Sprague-Dawley) (dose 1 mg/kg i.v.). The class given is ADME, organism-based. The following applies: in vivo.
Data set [4] deals with T1, Integrin alpha-4/beta-1. Kind of data set: Inhibition of I-VCAM-Ig binding to Very late antigen 4 (VLA-4). The format is protein-complex assay.
The nature of data set [5]: Oral bioavailability in rat (Sprague-Dawley). The format is ADME, organism-based. The following applies: in vivo.

T1 sequence (P05556 whole entry): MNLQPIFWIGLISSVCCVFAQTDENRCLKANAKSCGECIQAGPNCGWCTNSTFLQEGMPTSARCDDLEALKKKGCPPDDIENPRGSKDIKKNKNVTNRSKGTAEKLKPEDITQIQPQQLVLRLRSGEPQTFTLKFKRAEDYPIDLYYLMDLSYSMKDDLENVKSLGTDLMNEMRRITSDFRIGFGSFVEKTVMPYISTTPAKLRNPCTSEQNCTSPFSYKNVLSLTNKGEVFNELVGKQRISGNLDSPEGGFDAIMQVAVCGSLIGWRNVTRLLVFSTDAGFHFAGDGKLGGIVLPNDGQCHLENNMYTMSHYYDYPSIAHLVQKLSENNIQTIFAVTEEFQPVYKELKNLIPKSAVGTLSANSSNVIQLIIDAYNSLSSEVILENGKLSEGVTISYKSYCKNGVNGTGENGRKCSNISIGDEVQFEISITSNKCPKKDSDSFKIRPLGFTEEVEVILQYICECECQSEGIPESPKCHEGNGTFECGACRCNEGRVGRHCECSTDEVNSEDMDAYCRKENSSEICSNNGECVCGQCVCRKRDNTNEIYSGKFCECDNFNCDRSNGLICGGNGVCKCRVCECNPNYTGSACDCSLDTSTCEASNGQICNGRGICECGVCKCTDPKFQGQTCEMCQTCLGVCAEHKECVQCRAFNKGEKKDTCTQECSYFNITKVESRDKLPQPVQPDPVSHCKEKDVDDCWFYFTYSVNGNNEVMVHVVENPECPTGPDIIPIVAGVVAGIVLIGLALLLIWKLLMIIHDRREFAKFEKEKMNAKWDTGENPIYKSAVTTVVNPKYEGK
T1 sequence (P13612 whole entry): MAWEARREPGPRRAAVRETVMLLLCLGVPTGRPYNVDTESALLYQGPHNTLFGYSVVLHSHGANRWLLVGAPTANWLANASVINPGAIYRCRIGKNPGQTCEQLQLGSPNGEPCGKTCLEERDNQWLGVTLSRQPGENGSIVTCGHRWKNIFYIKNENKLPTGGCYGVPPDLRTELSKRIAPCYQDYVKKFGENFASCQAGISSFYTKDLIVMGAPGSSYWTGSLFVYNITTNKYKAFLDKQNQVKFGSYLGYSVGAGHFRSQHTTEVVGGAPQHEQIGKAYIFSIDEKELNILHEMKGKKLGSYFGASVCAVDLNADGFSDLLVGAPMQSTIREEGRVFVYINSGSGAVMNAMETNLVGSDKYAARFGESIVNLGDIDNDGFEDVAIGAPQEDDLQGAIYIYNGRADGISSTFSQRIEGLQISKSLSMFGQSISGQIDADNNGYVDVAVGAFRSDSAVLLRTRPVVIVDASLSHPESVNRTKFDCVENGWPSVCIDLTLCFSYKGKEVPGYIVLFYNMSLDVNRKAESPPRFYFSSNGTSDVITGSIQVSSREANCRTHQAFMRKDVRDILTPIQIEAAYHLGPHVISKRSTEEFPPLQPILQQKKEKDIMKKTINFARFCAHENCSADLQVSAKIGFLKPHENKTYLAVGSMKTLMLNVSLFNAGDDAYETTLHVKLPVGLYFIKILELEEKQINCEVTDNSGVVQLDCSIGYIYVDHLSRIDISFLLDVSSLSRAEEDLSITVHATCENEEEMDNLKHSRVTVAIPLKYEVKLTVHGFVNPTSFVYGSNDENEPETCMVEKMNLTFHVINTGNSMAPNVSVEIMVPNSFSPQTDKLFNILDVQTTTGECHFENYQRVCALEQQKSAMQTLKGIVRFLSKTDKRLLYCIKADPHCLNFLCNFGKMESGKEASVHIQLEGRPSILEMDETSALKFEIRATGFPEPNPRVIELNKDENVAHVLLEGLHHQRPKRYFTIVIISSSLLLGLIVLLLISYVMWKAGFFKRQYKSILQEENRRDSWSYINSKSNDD

As a reminder, the pIC50 is −log10 of the IC50, conventionally taken in molar units. A high value points to a small IC50. One may read the bioavailability as dose-corrected exposure relative to a reference, in per cent. A low value points to poor availability. In turn, `C[C@]1(C(=O)N[C@@H](Cc2ccc(-c3ccccc3OC3CC3)cc2)C(=O)O)CCCO1` gave a negative logarithm of the IC50 (pIC50) in data set [1] of 8.41. Further, the bioavailability in data set [2] and in data set [3] was 76% each time.
In the case of `COc1ccccc1-c1ccc(C[C@H](NC(=O)N2CCCN2S(=O)(=O)c2cc(Cl)cc(Cl)c2)C(=O)O)cc1`, the negative-log IC50 (pIC50) in data set [1] is 9.06.
In the case of `COc1ccccc1-c1ccc(C[C@H](NC(=O)C2CCCS2(=O)=O)C(=O)O)cc1` (stereo partly specified), the negative-log IC50 (pIC50) in data set [1] was 8.68.
Still for that read-out and setting: for `C[C@]1(C(=O)N[C@@H](Cc2ccc(NC(=O)c3c(Cl)cncc3Cl)cc2)C(=O)O)CCCO1` the value was 9.70; for `COc1ccccc1-c1ccc(C[C@H](NC(=O)[C@@H]2CCCN2)C(=O)O)cc1`, 7.96.
The same measure, in the same setting: for `COc1ccccc1-c1ccc(C[C@H](NC(=O)C2CCCCO2)C(=O)O)cc1` (stereo partly specified) the value was 8.31.
On the same count and under the same terms, for `C[C@]1(C(=O)N[C@@H](Cc2ccc(-c3ccccc3C#N)cc2)C(=O)O)CCCO1` the value was 7.96; for `COc1ccccc1-c1ccc(C[C@H](NC(=O)C2CCC(=O)N2)C(=O)O)cc1` (stereo partly specified), 8.55; for `COc1ccccc1-c1ccc(C[C@H](NC(=O)N2CCC=N2)C(=O)O)cc1`, 7.71.
With `COc1ccccc1-c1ccc(C[C@H](NC(=O)[C@@]2(C)CCCO2)C(=O)O)cc1`, the pIC50 in data set [4] is 7.86.
The compound `COc1ccccc1-c1ccc(C[C@H](NC(=O)C2CCOC2)C(=O)O)cc1` (stereo partly specified) showed a negative logarithm of the IC50 (pIC50) in data set [1] of 7.44.
`C[C@]1(C(=O)N[C@@H](Cc2ccc(-n3ccn(Cc4ccccc4)c3=O)cc2)C(=O)O)CCCO1` had a pIC50 in data set [1] of 8.39. This pIC50 lies 0.95 log units higher than the previous one.
In turn, `COc1ccccc1-c1ccc(C[C@H](NC(=O)C2(C)CCCS2(=O)=O)C(=O)O)cc1` (stereo partly specified) had a pIC50 in data set [1] of 8.89. In data set [5], this compound returned a bioavailability of 6%.
In the case of `COc1cccc(OC)c1-c1ccc(C[C@H](NC(=O)[C@@]2(C)CCCO2)C(=O)O)cc1`, the bioavailability in data set [2] and in data set [3] was 42% throughout. Further, the pIC50 in data set [4] is 9.52.
Turning to `C[C@]1(C(=O)N[C@@H](Cc2ccc(-c3c(OC4CC4)cccc3OC3CC3)cc2)C(=O)O)CCCO1`, the pIC50 in data set [1] was 8.62.
Same read-out and setting: for `COc1ccccc1-c1ccc(C[C@H](NC(=O)C2CCCO2)C(=O)O)cc1` (stereo partly specified) the value was 8.77.
On to `COc1ccccc1-c1ccc(C[C@@H](NC(=O)[C@@]2(C)CCCO2)C(=O)O)cc1`, for which the bioavailability in data set [2] and in data set [3] was 57% in each case. Further, the negative logarithm of the IC50 (pIC50) in data set [4] was 8.57.
Compound `COc1ccccc1-c1ccc(C[C@H](NC(=O)N2CCCC2)C(=O)O)cc1` had a pIC50 in data set [1] of 7.77.
The compound `COc1ccccc1-c1ccc(C[C@H](NC(=O)C2(C)CCCO2)C(=O)O)cc1` (stereo partly specified) yielded a bioavailability in data set [5] of 72%. In data set [4], this compound showed a pIC50 of 8.41.
Consider `C[C@]1(C(=O)N[C@@H](Cc2ccc(-n3ccccc3=O)cc2)C(=O)O)CCCO1`, for which the negative logarithm of the IC50 (pIC50) in data set [1] is 7.89. The bioavailability in data set [2] and in data set [3] was 27% throughout.
The compound `COc1ccccc1-c1ccc(C[C@H](NC(=O)C2CCCC2)C(=O)O)cc1` gave a pIC50 in data set [1] of 7.20.
